Consider 51 compounds from US20260158017A1, “KIF18A INHIBITOR” (WIGEN BIOMEDICINE TECHNOLOGY (SHANGHAI) CO., LTD., priority 2021, published 2026).

T1 sequence (Q8NI77 1-467): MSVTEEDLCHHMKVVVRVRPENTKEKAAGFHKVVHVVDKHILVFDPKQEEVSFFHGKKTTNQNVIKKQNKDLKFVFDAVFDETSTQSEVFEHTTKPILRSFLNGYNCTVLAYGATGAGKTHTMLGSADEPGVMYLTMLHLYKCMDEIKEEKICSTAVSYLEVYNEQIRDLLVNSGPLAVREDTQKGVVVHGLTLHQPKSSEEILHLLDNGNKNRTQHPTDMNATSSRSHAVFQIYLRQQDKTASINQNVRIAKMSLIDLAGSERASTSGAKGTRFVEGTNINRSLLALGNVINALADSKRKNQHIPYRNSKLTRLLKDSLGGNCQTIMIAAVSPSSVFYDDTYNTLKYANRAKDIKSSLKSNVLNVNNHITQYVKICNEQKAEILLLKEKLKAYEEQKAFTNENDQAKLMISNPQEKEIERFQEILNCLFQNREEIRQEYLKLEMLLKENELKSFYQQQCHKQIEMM
T1 sequence (P02550 whole entry partner): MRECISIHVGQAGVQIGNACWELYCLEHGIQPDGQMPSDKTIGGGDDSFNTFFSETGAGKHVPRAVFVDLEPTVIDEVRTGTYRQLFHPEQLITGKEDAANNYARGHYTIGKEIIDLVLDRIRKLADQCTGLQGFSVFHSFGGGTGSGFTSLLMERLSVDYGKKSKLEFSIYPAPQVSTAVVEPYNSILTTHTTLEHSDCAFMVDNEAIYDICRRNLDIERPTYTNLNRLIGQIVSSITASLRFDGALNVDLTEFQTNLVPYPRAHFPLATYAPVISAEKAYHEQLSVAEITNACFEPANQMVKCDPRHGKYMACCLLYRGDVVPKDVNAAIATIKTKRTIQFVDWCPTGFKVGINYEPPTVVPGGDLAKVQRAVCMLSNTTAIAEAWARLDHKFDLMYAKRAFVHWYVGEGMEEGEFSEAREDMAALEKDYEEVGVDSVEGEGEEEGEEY
T1 sequence (P02554 whole entry partner): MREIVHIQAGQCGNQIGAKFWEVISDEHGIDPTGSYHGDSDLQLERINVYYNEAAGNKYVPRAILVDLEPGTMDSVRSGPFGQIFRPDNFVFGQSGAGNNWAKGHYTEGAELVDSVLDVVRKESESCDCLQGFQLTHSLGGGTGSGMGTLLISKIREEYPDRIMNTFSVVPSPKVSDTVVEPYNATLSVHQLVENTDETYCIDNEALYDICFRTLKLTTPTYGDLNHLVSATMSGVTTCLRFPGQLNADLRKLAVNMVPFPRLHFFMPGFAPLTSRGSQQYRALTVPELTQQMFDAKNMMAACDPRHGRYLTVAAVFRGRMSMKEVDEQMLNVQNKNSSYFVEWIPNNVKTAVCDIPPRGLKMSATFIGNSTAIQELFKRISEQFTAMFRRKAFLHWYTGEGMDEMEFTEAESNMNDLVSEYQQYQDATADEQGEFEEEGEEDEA

This experiment concerns the target T1, Recombinant human KIF18A (1-467His-tagged) protein (Homo sapiens, UniProt Q8NI77).
T1 construct: Recombinant human KIF18A (1-467His-tagged) protein; His; made in house
Kind of experiment: KIF18A enzyme assay (microtubule-stimulated ATPase activity, ADP-Glo). In kind it is biochemical. The note with it: 30 nM KIF18A, 75 μM ATP, 30 μg/mL pig microtubules; read-out: Inhibitory activity against KIF18A IC50. The method, then: In Vitro Assay of the Compounds of the Present Invention for Inhibiting Enzymatic Activity of KIF18A
KIF18A enzyme assay: The enzymatic activity of KIF18A after treatment with the compounds was measured by an assay of microtubule-stimulated ATPase activity. ADP generated from the ATPase reaction was measured in this assay. The compounds were serially diluted 2-fold in DMSO over a range of 22 concentration points. […] Concentrations of KIF18A protein, microtubules, and ATP in the reaction were optimized for a standardized homogenous enzyme assay using an ADP-Glo kinase/ATPase assay kit. A reaction buffer [(15 mM Tris, pH 7.5), 10 mM MgCl2, 0.01% PluronicF-68, 1 μM paclitaxel, and 30 μg/mL pig microtubules] was prepared. […] The resulting reaction mixture was incubated at room temperature for another 15 min. 5 μL of ADP-Glo reagent and 2.5 μL of the reaction mixture were mixed and the resulting mixture was incubated at room temperature for 40 min. 10 μL of ADP-Glo detection reagent was added and the mixture was incubated at room temperature for 40 min. Luminescence was read using a microplate reader and compared with that of the DMSO group, and then the inhibition percentages and IC50 values of the compounds were calculated.
In the case of `O=C(Nc1ccc(S(=O)(=O)NCCO)cc1N1CCC2(CC1)CC2)c1ccc([N+](=O)[O-])c(N2CCC(F)CC2)c1` [Compound 57], the IC50 lay within 100 to 500 nM.

Turning to `O=C(Nc1ccc(S(=O)(=O)NCCO)cc1N1CCC2(CC1)CC2)c1ccc([N+](=O)[O-])c(N2CC3CC3C2)c1` (stereo not drawn) [Compound 58], the IC50 lay in the range of 100 to 500 nM.

As for `CC(C)(CO)Nc1cc(C(=O)Nc2ccc(S(=O)(=O)NCCO)cc2N2CCC3(CC2)CC3)ccc1[N+](=O)[O-]` [Compound 59], the half-maximal inhibitory concentration (IC50) lay within 100 to 500 nM.

Turning to `O=C(Nc1ccc(S(=O)(=O)NCCO)cc1N1CCC2(CC1)CC2)c1ccc([N+](=O)[O-])c(N2CCOCC2)c1` [Compound 60], the IC50 lay in the range of 100 to 500 nM.

Regarding `C[C@@H](CO)NS(=O)(=O)c1ccc(NC(=O)c2ccc([N+](=O)[O-])c(N3CCC(F)(F)CC3)c2)c(N2CCC3(CC2)CC3)c1` [Compound 61], the IC50 lay in the range of 100 to 500 nM.

With `C[C@H](CO)NS(=O)(=O)c1ccc(NC(=O)c2ccc([N+](=O)[O-])c(N3CCC(F)(F)CC3)c2)c(N2CCC3(CC2)CC3)c1` [Compound 62], the IC50 was in the range of 100 to 500 nM.

On to `C[C@@H]1CN(c2cc(C(=O)Nc3ccc(S(=O)(=O)N[C@@H](C)CO)cc3N3CCC4(CC3)CC4)ccc2[N+](=O)[O-])CCO1` [Compound 63], for which the IC50 lay within 100 to 500 nM.

With `C[C@H](CO)NS(=O)(=O)c1ccc(NC(=O)c2ccc([N+](=O)[O-])c(N3CCO[C@H](C)C3)c2)c(N2CCC3(CC2)CC3)c1` [Compound 64], the IC50 was 100 to 500 nM.

Regarding `C[C@@H]1CN(c2nc(NC(=O)c3ccc(NS(=O)(=O)CCO)cc3N3CCC4(CC3)CC4)ccc2[N+](=O)[O-])CCO1` [Compound 66], the IC50 was at most 100 nM.

As to `C[C@H]1CN(c2nc(NC(=O)c3ccc(NS(=O)(=O)CCO)cc3N3CCC4(CC3)CC4)ccc2[N+](=O)[O-])CCO1` [Compound 67], the IC50 was at most 100 nM.

Regarding `O=C(Nc1ccc([N+](=O)[O-])c(N2CC(F)(F)C2)n1)c1ccc(NS(=O)(=O)CCO)cc1N1CCC2(CC1)CC2` [Compound 68], the IC50 was at most 100 nM.

For `O=C(Nc1ccc([N+](=O)[O-])c(OCCC(F)(F)F)n1)c1ccc(NS(=O)(=O)CCO)cc1N1CCC2(CC1)CC2` [Compound 69], the IC50 is at most 100 nM.

Consider `O=C(Nc1ccc([N+](=O)[O-])c(N2CCC3(CC3)C2)n1)c1ccc(NS(=O)(=O)CCO)cc1N1CCC2(CC1)CC2` [Compound 70], for which the IC50 was at most 100 nM.

Take `O=C(Nc1ccc([N+](=O)[O-])c(OC2CCC2)n1)c1ccc(NS(=O)(=O)CCO)cc1N1CCC2(CC1)CC2` [Compound 71]: the IC50 is at most 100 nM.

Consider `CC1(F)CCN(c2nc(NC(=O)c3ccc(NS(=O)(=O)CCO)cc3N3CCC4(CC3)CC4)ccc2[N+](=O)[O-])C1` (stereo not drawn) [Compound 72], for which the IC50 is at most 100 nM.

As for `O=C(Nc1ccc([N+](=O)[O-])c(N2CCC(F)CC2)n1)c1ccc(NS(=O)(=O)CCO)cc1N1CCC2(CC1)CC2` [Compound 73], the IC50 is at most 100 nM.

In the case of `O=C(Nc1ccc([N+](=O)[O-])c(N2CC3CC3C2)n1)c1ccc(NS(=O)(=O)CCO)cc1N1CCC2(CC1)CC2` (stereo not drawn) [Compound 74], the IC50 is at most 100 nM.

As for `CC(C)(CO)Nc1nc(NC(=O)c2ccc(NS(=O)(=O)CCO)cc2N2CCC3(CC2)CC3)ccc1[N+](=O)[O-]` [Compound 75], the IC50 was at most 100 nM.

Regarding `O=C(Nc1ccc([N+](=O)[O-])c(N2CCOCC2)n1)c1ccc(NS(=O)(=O)CCO)cc1N1CCC2(CC1)CC2` [Compound 76], the IC50 was at most 100 nM.

Take `C[C@@H](CO)S(=O)(=O)Nc1ccc(C(=O)Nc2ccc([N+](=O)[O-])c(N3CCC(F)(F)CC3)n2)c(N2CCC3(CC2)CC3)c1` [Compound 77]: the IC50 was at most 100 nM.

Take `C[C@H](CO)S(=O)(=O)Nc1ccc(C(=O)Nc2ccc([N+](=O)[O-])c(N3CCC(F)(F)CC3)n2)c(N2CCC3(CC2)CC3)c1` [Compound 78]: the IC50 is at most 100 nM.

Turning to `C[C@@H]1CN(c2nc(NC(=O)c3ccc(NS(=O)(=O)[C@@H](C)CO)cc3N3CCC4(CC3)CC4)ccc2[N+](=O)[O-])CCO1` [Compound 79], the IC50 was at most 100 nM.

With `C[C@@H]1CN(c2nc(NC(=O)c3ccc(NS(=O)(=O)[C@H](C)CO)cc3N3CCC4(CC3)CC4)ccc2[N+](=O)[O-])CCO1` [Compound 80], the IC50 is at most 100 nM.

As for `O=C(Nc1ccc([N+](=O)[O-])c(N2CCC(F)(F)CC2)n1)c1ccc(S(=O)(=O)NCCO)cc1N1CCC2(CC1)CC2` [Compound 81], the IC50 is at most 100 nM.

For `C[C@@H]1CN(c2nc(NC(=O)c3ccc(S(=O)(=O)NCCO)cc3N3CCC4(CC3)CC4)ccc2[N+](=O)[O-])CCO1` [Compound 82], the IC50 was at most 100 nM.

Turning to `C[C@H]1CN(c2nc(NC(=O)c3ccc(S(=O)(=O)NCCO)cc3N3CCC4(CC3)CC4)ccc2[N+](=O)[O-])CCO1` [Compound 83], the IC50 was at most 100 nM.

For `O=C(Nc1ccc([N+](=O)[O-])c(N2CC(F)(F)C2)n1)c1ccc(S(=O)(=O)NCCO)cc1N1CCC2(CC1)CC2` [Compound 84], the IC50 was at most 100 nM.

Take `O=C(Nc1ccc([N+](=O)[O-])c(OCCC(F)(F)F)n1)c1ccc(S(=O)(=O)NCCO)cc1N1CCC2(CC1)CC2` [Compound 85]: the IC50 was at most 100 nM.

As for `O=C(Nc1ccc([N+](=O)[O-])c(N2CCC3(CC3)C2)n1)c1ccc(S(=O)(=O)NCCO)cc1N1CCC2(CC1)CC2` [Compound 86], the IC50 is at most 100 nM.

Take `O=C(Nc1ccc([N+](=O)[O-])c(OC2CCC2)n1)c1ccc(S(=O)(=O)NCCO)cc1N1CCC2(CC1)CC2` [Compound 87]: the IC50 was at most 100 nM.

For the compound `CC1(F)CCN(c2nc(NC(=O)c3ccc(S(=O)(=O)NCCO)cc3N3CCC4(CC3)CC4)ccc2[N+](=O)[O-])C1` (stereo not drawn) [Compound 88], the IC50 is at most 100 nM.

`O=C(Nc1ccc([N+](=O)[O-])c(N2CCC(F)CC2)n1)c1ccc(S(=O)(=O)NCCO)cc1N1CCC2(CC1)CC2` [Compound 89]: the IC50 was at most 100 nM.

Regarding `O=C(Nc1ccc([N+](=O)[O-])c(N2CC3CC3C2)n1)c1ccc(S(=O)(=O)NCCO)cc1N1CCC2(CC1)CC2` (stereo not drawn) [Compound 90], the IC50 was at most 100 nM.

On to `CC(C)(CO)Nc1nc(NC(=O)c2ccc(S(=O)(=O)NCCO)cc2N2CCC3(CC2)CC3)ccc1[N+](=O)[O-]` [Compound 91], for which the IC50 was at most 100 nM.

Take `O=C(Nc1ccc([N+](=O)[O-])c(N2CCOCC2)n1)c1ccc(S(=O)(=O)NCCO)cc1N1CCC2(CC1)CC2` [Compound 92]: the IC50 is at most 100 nM.

Regarding `C[C@@H](CO)NS(=O)(=O)c1ccc(C(=O)Nc2ccc([N+](=O)[O-])c(N3CCC(F)(F)CC3)n2)c(N2CCC3(CC2)CC3)c1` [Compound 93], the IC50 is at most 100 nM.

For `C[C@H](CO)NS(=O)(=O)c1ccc(C(=O)Nc2ccc([N+](=O)[O-])c(N3CCC(F)(F)CC3)n2)c(N2CCC3(CC2)CC3)c1` [Compound 94], the IC50 was at most 100 nM.

Take `C[C@@H]1CN(c2nc(NC(=O)c3ccc(S(=O)(=O)N[C@@H](C)CO)cc3N3CCC4(CC3)CC4)ccc2[N+](=O)[O-])CCO1` [Compound 95]: the IC50 was at most 100 nM.

For the compound `C[C@H](CO)NS(=O)(=O)c1ccc(C(=O)Nc2ccc([N+](=O)[O-])c(N3CCO[C@H](C)C3)n2)c(N2CCC3(CC2)CC3)c1` [Compound 96], the IC50 was at most 100 nM.

Regarding `C[C@@H]1CN(c2cc(NC(=O)c3cnc(NS(=O)(=O)CCO)cc3N3CCC4(CC3)CC4)ccc2[N+](=O)[O-])CCO1` [Compound 98], the IC50 is at most 100 nM.

In the case of `C[C@H]1CN(c2cc(NC(=O)c3cnc(NS(=O)(=O)CCO)cc3N3CCC4(CC3)CC4)ccc2[N+](=O)[O-])CCO1` [Compound 99], the IC50 was at most 100 nM.

As for `O=C(Nc1ccc([N+](=O)[O-])c(N2CC(F)(F)C2)c1)c1cnc(NS(=O)(=O)CCO)cc1N1CCC2(CC1)CC2` [Compound 100], the IC50 is at most 100 nM.

Turning to `O=C(Nc1ccc([N+](=O)[O-])c(OCCC(F)(F)F)c1)c1cnc(NS(=O)(=O)CCO)cc1N1CCC2(CC1)CC2` [Compound 101], the IC50 was at most 100 nM.

With `O=C(Nc1ccc([N+](=O)[O-])c(N2CCC3(CC3)C2)c1)c1cnc(NS(=O)(=O)CCO)cc1N1CCC2(CC1)CC2` [Compound 102], the IC50 was at most 100 nM.

With `O=C(Nc1ccc([N+](=O)[O-])c(OC2CCC2)c1)c1cnc(NS(=O)(=O)CCO)cc1N1CCC2(CC1)CC2` [Compound 103], the IC50 is at most 100 nM.

Consider `CC1(F)CCN(c2cc(NC(=O)c3cnc(NS(=O)(=O)CCO)cc3N3CCC4(CC3)CC4)ccc2[N+](=O)[O-])C1` (stereo not drawn) [Compound 104], for which the IC50 is at most 100 nM.

In the case of `O=C(Nc1ccc([N+](=O)[O-])c(N2CCC(F)CC2)c1)c1cnc(NS(=O)(=O)CCO)cc1N1CCC2(CC1)CC2` [Compound 105], the IC50 was at most 100 nM.

On to `O=C(Nc1ccc([N+](=O)[O-])c(N2CC3CC3C2)c1)c1cnc(NS(=O)(=O)CCO)cc1N1CCC2(CC1)CC2` (stereo not drawn) [Compound 106], for which the IC50 is at most 100 nM.

As for `CC(C)(CO)Nc1cc(NC(=O)c2cnc(NS(=O)(=O)CCO)cc2N2CCC3(CC2)CC3)ccc1[N+](=O)[O-]` [Compound 107], the IC50 is at most 100 nM.

Regarding `O=C(Nc1ccc([N+](=O)[O-])c(N2CCOCC2)c1)c1cnc(NS(=O)(=O)CCO)cc1N1CCC2(CC1)CC2` [Compound 108], the IC50 is at most 100 nM.

For `C[C@@H](CO)S(=O)(=O)Nc1cc(N2CCC3(CC2)CC3)c(C(=O)Nc2ccc([N+](=O)[O-])c(N3CCC(F)(F)CC3)c2)cn1` [Compound 109], the IC50 was at most 100 nM.
